Test results from US20130245081A1, “Compositions and Methods for Treating Amyotrophic Lateral Sclerosis” (priority 2009, published 2013).

Experiment: clinical
Conditions: for CL/F / Fe / Ue / λz: Day 7, fasted; for CL renal: urine and plasma
Text: A total of 54 subjects (30 subjects in Study CL001 and 24 subjects in Study CL002) were enrolled. Healthy, non-smoking, male and female subjects 30 to 60 years of age, inclusive, with normal or clinically acceptable physical examination and electrocardiogram (ECG) findings, systolic (90 to 140 mmHg) and diastolic (50 to 90 mmHg) blood pressure, and resting heart rate (50 to 100 bpm) who were willing to provide signed, written informed consent were eligible for enrollment. Female volunteers had to be of non-childbearing potential with negative pregnancy test results at screening and clinic check-in. Subjects with any history of neurodegenerative illnesses were excluded. The use of over-the-counter medications within 7 days prior to enrollment or prescription medications within 12 weeks prior to enrollment was prohibited.
In the second study, subjects were enrolled in 3 successive double-blind, placebo-controlled, panels of 8 subjects (n=6 active, n=2 placebo per panel).
Matching placebo capsules contained equivalent weights of microcrystalline cellulose. Capsules were administered orally with water. […] Subjects in the fasted cohorts were required to fast overnight for a minimum of 10 hours before dose administration. Subjects in the food cohort were required to fast overnight for a minimum of 10 hours before dose administration, with exception of the high fat/high calorie meal that was administered 30 minutes prior to drug administration. […] All available safety data were reviewed under blinded conditions to monitor for serious safety or tolerability events prior to proceeding with dose escalations.
In both studies, a complete collection was attempted for each urine sample interval.
Blood samples were collected into a 10 mL dipotassium ethylenediaminetetraacetic acid (K2-EDTA) Vacutainer® via an indwelling peripheral intravenous cannula or by direct venipuncture. Within 15 minutes of collection, the samples were centrifuged at 3000 rpm for 10 minutes at 4° C. After centrifugation, the plasma was divided into 2 aliquots of at least 1.5 mL each, placed into polypropylene containers, frozen, and stored at −20° C. until they were shipped for analysis.
Urine collected in each interval was well mixed, the pH was recorded, the total volume (or the weight and specific gravity) was recorded, and 2 aliquots of 20 mL each were collected into polypropylene containers and stored at −20° C. until they were shipped for analysis. All plasma and urine sample were shipped frozen on dry ice in 2 separate shipments per group (1 set of aliquots per shipment) to Eurofins AvTech Laboratories Inc. (Kalamazoo, Mich.) for bioanalytical analysis.
Plasma and urine concentrations were measured using validated liquid chromatography/mass spectrometry/mass spectrometry (LC/MS/MS) methods. […] The analytical procedure for analysis of plasma samples used a 100 μL aliquot of K2EDTA human plasma. The plasma sample was spiked with 20 μL of working internal standard solution and 20 μL of type 1 water for subject samples and QCs and 20 μL of the appropriate intermediate standard solution for standards. One hundred microliters ([…]) of 50% ammonium hydroxide solution was added to the sample followed by vortex mixing. One milliliter (1 mL) of tertbutyl methyl ether was then added and the sample was vortexed to extract the analyte and internal standard into the organic layer, followed by separation using flash freezing. The organic layer was decanted, evaporated to dryness, and the sample was reconstituted with 0.5 mL of reconstitution solution (0.1% ammonium hydroxide in 50:50 methanol; type 1 water (v/v/v)). A 10 μL aliquot of this reconstituted sample was injected into an LC/MS/MS system for analysis.

[1] = both, human, plasma, oral, 50 mg
[2] = both, human, plasma, oral, 100 mg
[3] = both, human, plasma, oral, 150 mg

CCCN[C@@H]1CCc2nc(N)sc2C1 [dexpramipexole, (6R)-2-amino-4,5,6,7-tetrahydro-6-(propylamino)benzothiazole]
CL/F (50 mg Twice Daily): 437 ± 60.8 mL/min
Fe (50 mg Twice Daily): 87.2 ± 10.26 % dose
Ue (50 mg Twice Daily): 32.5 ± 3.82 mg
λz (50 mg Twice Daily): 0.1039 ± 0.0193 h⁻¹
CL/F (100 mg Twice Daily): 510 ± 57.4 mL/min
Fe (100 mg Twice Daily): 75.5 ± 3.51 % dose
Ue (100 mg Twice Daily): 56.3 ± 2.62 mg
λz (100 mg Twice Daily): 0.0893 ± 0.0117 h⁻¹
CL/F (150 mg Twice Daily): 507 ± 74.1 mL/min
Fe (150 mg Twice Daily): 89.6 ± 7.83 % dose
Ue (150 mg Twice Daily): 100.3 ± 8.76 mg
λz (150 mg Twice Daily): 0.0895 ± 0.0184 h⁻¹
dose recovered in the urine as unchanged parent drug (12-hour steady-state dosing period): approximately 84%
AUC(0-t) [1]: 1450 ± 221 ng·h/mL
Cmax at 7 day [1]: 191 ± 20.9 ng/mL
Tmax [1]: 1.75 h
Vd/F [1]: 255 ± 24 L
half-life [1]: 6.87 ± 1.29 h
AUC(0-t) [2]: 2470 ± 304 ng·h/mL
Cmax at 7 day [2]: 306 ± 54.8 ng/mL
Tmax [2]: 2.02 h
Vd/F [2]: 348 ± 61.7 L
half-life [2]: 7.89 ± 1.19 h
AUC(0-t) [3]: 3750 ± 575 ng·h/mL
Cmax [3]: 479 ± 74.6 ng/mL
Tmax [3]: 2.18 h
Vd/F [3]: 349 ± 75.8 L
half-life [3]: 8.05 ± 1.8 h
CL renal (both, human, oral, 50 mg): 385 ± 90.3 mL/min
CL renal (both, human, oral, 100 mg): 382 ± 62.7 mL/min
CL renal (both, human, oral, 150 mg): 451 mL/min
